Format in all cases: in vivo
The subject of data set [1] is Echinochloa oryzacola Vasing. As to the kind of experiment: Test Example 1: herbicidal activity, application before weed generation in submerged conditions (symbol A). Conditions: application herbicide amount 320 g/ha. Summed up:
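Application before weed emergence: an aqueous dilution of the emulsion formulation was poured onto the surface of 4 cm-deep floodwater on the day of sowing. Effect was judged after 3 weeks (greenhouse, 25–30 °C).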

Data set [2] concerns transplanted rice plant. The data set is described as follows: Test Example 1: effect on crop, application before weed generation in submerged conditions (symbol a). Conditions: application herbicide amount 320 g/ha. Summed up: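 Rice at 2.5 leaf stage transplanted into submerged soil (4 cm depth) sown with three weed species; herbicide applied before weed emergence.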
The subject of data set [3] is Monochoria vaginalis. The data set is described as follows: Test Example 2: herbicidal activity, application during weed generation in submerged conditions (symbol C). As to conditions: Table 23; application herbicide amount 320 g/ha; grade 0-5 by criteria of Test Example 1. The gist of the method:
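Compound was applied as a water-diluted emulsion into the standing water of flooded pots (4 cm) once co-sown weeds reached one to two leaves. Greenhouse temperature was 25° C. to 30° C., soil was alluvial, and each species was rated visually after 3 weeks.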

Data set [4] has as its system Digitaria ciliaris. The data set is described as follows: Test Example 4: herbicidal effect by soil treatment (symbol F). Summed up:
(§1)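 Seeds were sown in sterilized diluvial soil, covered with about 1.5 cm of soil, and the soil surface was sprayed with a water-diluted emulsion of the compound at a predetermined rate. Plants grew in a greenhouse at 25° C. to 30° C.; effects were scored visually 3 weeks after application.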

For data set [5], the system named is Echinochloa crus-galli var. crus-galli. The data set is described as follows: Test Example 4: herbicidal effect by soil treatment (symbol H). The gist of the method:
as §1

Data set [6] has as its system Avena fatua. The data set is described as follows: Test Example 4: herbicidal effect by soil treatment (symbol I). The gist of the method:
as §1

In data set [7] the test system is Lolium multiflorum Lam. As to the kind of experiment: Test Example 4: herbicidal effect by soil treatment (symbol K). Summed up: as §1
Data set [8] deals with Apera spica-venti. The data set is described as follows: Test Example 4: herbicidal effect by soil treatment (symbol L). Summed up: as §1
Data set [9] has as its system Stellaria media. The data set is described as follows: Test Example 4: herbicidal effect by soil treatment (symbol P). The gist of the method: as §1
Data set [10] deals with Veronica persica. As to the kind of experiment: Test Example 4: herbicidal effect by soil treatment (symbol R). Summed up:
as §1

Data set [11] concerns soybean. The data set is described as follows: Test Example 4: effect on crop by soil treatment (symbol d). The gist of the method:
(§2)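 Diluvial soil (sterilized) in boxes; seeds placed spot-wise alongside weed species; ~1.5 cm covering soil. Greenhouse, 25–30° C.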

Data set [12] deals with rice. As to the kind of experiment: Test Example 4: effect on crop by soil treatment (symbol b). Summed up:
as §2

Data set [13] deals with rapeseed. The data set is described as follows: Test Example 4: effect on crop by soil treatment (symbol g). Summed up:
as §2

Data set [14] concerns Echinochloa crus-galli var. crus-galli. The data set is described as follows: Test Example 5: herbicidal effect by foliage application, plastic box (symbol H). Conditions: 320 g/ha, 3 weeks after application. The gist of the method: (§3)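 Post-emergence spray; diluvial soil (sterilized), ~1.5 cm seed cover; greenhouse 25–30° C; 14-day-old plants; water-diluted emulsion at predetermined dose; visual score at 3 wk post-treatment.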

The test system of data set [15] is Lolium multiflorum Lam. The data set is described as follows: Test Example 5: herbicidal effect by foliage application, plastic box (symbol K). As to conditions: 320 g/ha, 3 weeks after application. Summed up: as §3
Data set [16] concerns Apera spica-venti. The data set is described as follows: Test Example 5: herbicidal effect by foliage application, plastic box (symbol L). As to conditions: 320 g/ha, 3 weeks after application. The gist of the method:
as §3

In data set [17] the test system is Stellaria media. The data set is described as follows: Test Example 5: herbicidal effect by foliage application, plastic box (symbol P). As to conditions: 320 g/ha, 3 weeks after application. Summed up: as §3
Where [18] appears, read: application herbicide amount 320 g/ha.

In the case of `CON=C(C)CC1CC(OS(=O)(=O)C2CC2)=C(c2c(C)cc(C)cc2C)C1=O` (stereo not shown) [1-143], the “Herbicidal effect grade, A: Echinochloa oryzacola Vasing.” value in data set [1] was 4 (Herbicidal ratio of 70% or higher and lower than 90%). Besides, in [2], the “Effect grade on crop, a: transplanted rice plant” value is on record as 5 (Herbicidal ratio of 90% or more (almost completely withered)). For the same compound, the “Herbicidal effect grade, C: Monochoria vaginalis” value in data set [3] is 3 (Herbicidal ratio of 40% or higher and lower than 70%). Besides, the “F: Digitaria ciliaris, herbicidal effect grade” value in data set [4] (320 g/ha) was 1 (Herbicidal ratio of 5% or higher and lower than 20%). The “H: Echinochloa crus-galli var. crus-galli, herbicidal effect grade” value in data set [5] (320 g/ha) is recorded as 0 (Herbicidal ratio of 5% or lower (almost no effect)). For the same compound, in data set [6] (320 g/ha), the “I: Avena fatua, herbicidal effect grade” value is 2 (Herbicidal ratio of 20% or higher and lower than 40%). Besides, in [7] (320 g/ha), the “K: Lolium multiflorum Lam., herbicidal effect grade” value is 4 (Herbicidal ratio of 70% or higher and lower than 90%). In data set [8] (320 g/ha), the “L: Apera spica-venti, herbicidal effect grade” value was 5 (Herbicidal ratio of 90% or more (almost completely withered)). Also, the “P: Stellaria media, herbicidal effect grade” value in [9] (320 g/ha) is on record as 0 (Herbicidal ratio of 5% or lower (almost no effect)). For the same compound, in data set [10] (320 g/ha), the “R: Veronica persica, herbicidal effect grade” value is 0 (Herbicidal ratio of 5% or lower (almost no effect)). Also, in [11] (320 g/ha), the “d: soybean, effect grade on crop” value was 0 (Herbicidal ratio of 5% or lower (almost no effect)). The “b: directly sowed rice plant, effect grade on crop” value in data set [12] (320 g/ha) is reported as 0 (Herbicidal ratio of 5% or lower (almost no effect)). Moreover, in data set [13] (320 g/ha), the “g: rapeseed, effect grade on crop” value is on record as 0 (Herbicidal ratio of 5% or lower (almost no effect)). The “H: Echinochloa crus-galli var. crus-galli, herbicidal effect (criteria 0-5)” value in data set [14] is listed as 5 (Herbicidal ratio of 90% or more (almost completely withered)). For the same compound, the “K: Lolium multiflorum Lam., herbicidal effect (criteria 0-5)” value in data set [15] is given as 5 (Herbicidal ratio of 90% or more (almost completely withered)). The “L: Apera spica-venti, herbicidal effect (criteria 0-5)” value in data set [16] is reported as 5 (Herbicidal ratio of 90% or more (almost completely withered)). For the same compound, the “P: Stellaria media, herbicidal effect (criteria 0-5)” value in data set [17] is given as 0 (Herbicidal ratio of 5% or lower (almost no effect)).

As for `CON=C(C)CC1CC(OC(=O)c2ccccc2)=C(c2c(C)cc(C)cc2C)C1=O` (stereo not shown) [1-010], the “Herbicidal effect grade, A: Echinochloa oryzacola Vasing.” value in data set [1] is 5 (Herbicidal ratio of 90% or more (almost completely withered)). Besides, the “Effect grade on crop, a: transplanted rice plant” value in data set [2] is 5 (Herbicidal ratio of 90% or more (almost completely withered)). For the same compound, in [3], the “Herbicidal effect grade, C: Monochoria vaginalis” value was 2 (Herbicidal ratio of 20% or higher and lower than 40%). The “F (Digitaria ciliaris) herbicidal effect grade” value in data set [4] (setting [18]) was 5 (Herbicidal ratio of 90% or more (almost completely withered)). Also, the “H (Echinochloa crus-galli var. crus-galli) herbicidal effect grade” value in data set [5] (setting [18]) is recorded as 5 (Herbicidal ratio of 90% or more (almost completely withered)). Besides, in data set [6] (setting [18]), the “I (Avena fatua) herbicidal effect grade” value was 5 (Herbicidal ratio of 90% or more (almost completely withered)). For the same compound, the “K (Lolium multiflorum Lam.) herbicidal effect grade” value in data set [7] (setting [18]) is reported as 5 (Herbicidal ratio of 90% or more (almost completely withered)). For the same compound, in data set [8] (setting [18]), the “L (Apera spica-venti) herbicidal effect grade” value is 5 (Herbicidal ratio of 90% or more (almost completely withered)). Besides, the “P (Stellaria media) herbicidal effect grade” value in data set [9] (setting [18]) was 4 (Herbicidal ratio of 70% or higher and lower than 90%). In addition, the “R (Veronica persica) herbicidal effect grade” value in data set [10] (setting [18]) was 4 (Herbicidal ratio of 70% or higher and lower than 90%). Moreover, the “d (soybean) effect on crop grade” value in [11] (setting [18]) is 4 (Herbicidal ratio of 70% or higher and lower than 90%). Further, the “b (directly sowed rice plant) effect on crop grade” value in [12] (setting [18]) is recorded as 5 (Herbicidal ratio of 90% or more (almost completely withered)). Also, the “g (rapeseed) effect on crop grade” value in data set [13] (setting [18]) is 4 (Herbicidal ratio of 70% or higher and lower than 90%). In addition, the “H: Echinochloa crus-galli var. crus-galli, herbicidal effect grade” value in data set [14] is listed as 5 (Herbicidal ratio of 90% or more (almost completely withered)). The “K: Lolium multiflorum Lam., herbicidal effect grade” value in data set [15] is 5 (Herbicidal ratio of 90% or more (almost completely withered)). Also, the “L: Apera spica-venti, herbicidal effect grade” value in data set [16] was 5 (Herbicidal ratio of 90% or more (almost completely withered)). Further, in data set [17], the “P: Stellaria media, herbicidal effect grade” value was 4 (Herbicidal ratio of 70% or higher and lower than 90%).

These data come from patent US11000033B2, “Ketone or oxime compound, and herbicide” (NISSAN CHEMICAL CORPORATION, priority 2014, dated 2021).
